Measurements published in US20110105509A1 (Wyeth, LLC, priority 2009, published 2011).

Molecular target: T1, CRTH2 (Homo sapiens, UniProt Q9Y5Y4)
T1 construct: expressed in transfected cells; host or cells: CHO cells
T1 sequence (Q9Y5Y4 1-395): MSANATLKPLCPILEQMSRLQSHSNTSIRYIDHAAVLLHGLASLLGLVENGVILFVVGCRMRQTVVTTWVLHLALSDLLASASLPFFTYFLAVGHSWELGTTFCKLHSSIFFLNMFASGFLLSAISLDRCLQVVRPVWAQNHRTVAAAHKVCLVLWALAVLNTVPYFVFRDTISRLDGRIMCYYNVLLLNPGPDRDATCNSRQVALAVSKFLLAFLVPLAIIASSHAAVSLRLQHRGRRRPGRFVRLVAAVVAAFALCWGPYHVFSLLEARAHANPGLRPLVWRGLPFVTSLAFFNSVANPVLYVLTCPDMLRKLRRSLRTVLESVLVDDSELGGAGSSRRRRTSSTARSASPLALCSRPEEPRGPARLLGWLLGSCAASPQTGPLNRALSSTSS
Test: FRET based competitive immunoassay (cAMP) in CRTH2 expressing CHO cells
Type: cell-based
Details: CRTH2 expressing CHO cells incubated with forskolin and PGD2; Eu3+ cryptate-labeled anti-cAMP and d2-labeled cAMP
Method: FRET Assay: To evaluate potency compounds were tested in a FRET based competitive immunoassay in which CRTH2 expressing CHO cells were incubated in the presence of forskolin and PGD2 along with Eu3+ cryptate-labeled anti-cAMP and d2-labeled cAMP.

Row | IC50 [µM] | Structure (SMILES)
1 | > 1 | Cc1c(-c2ccc(=O)n(CCCC(F)(F)F)c2)c2cc(F)ccc2n1CC(=O)NS(C)(=O)=O [Example 318, 2-(5-fluoro-2-methyl-3-(6-oxo-1-(4,4,4-trifluorobutyl)-1,6-dihydropyridin-3-yl)-1H-indol-1-yl)-N-(methylsulfonyl)acetamide]
2 | > 1 | Cc1c(-c2ccc(=O)n(Cc3ccccc3)c2)c2cc(F)ccc2n1CC(=O)NS(=O)(=O)C1CC1 [Example 319, 2-(3-(1-Benzyl-6-oxo-1,6-dihydropyridin-3-yl)-5-fluoro-2-methyl-1H-indol-1-yl)-N-(cyclo-propyl-sulfonyl)acetamide]
3 | > 1 | Cc1c(Cc2ccc(=O)n(Cc3ccc(F)cc3F)n2)c2cc(F)ccc2n1CC(=O)NS(C)(=O)=O [Example 320, 2-(3-((1-(2,4-difluorobenzyl)-6-oxo-1,6-dihydropyridazin-3-yl)methyl)-5-fluoro-2-methyl-1H-indol-1-yl)-N-(methylsulfonyl)acetamide]
4 | > 1 | Cc1c(Cc2ccc(=O)n(Cc3ccc(F)c(F)c3)c2)c2cc(F)ccc2n1CC(=O)NS(C)(=O)=O [Example 321, 2-(3-((1-(3,4-difluorobenzyl)-6-oxo-1,6-dihydropyridin-3-yl)methyl)-5-fluoro-2-methyl-1H-indol-1-yl)-N-(methylsulfonyl)acetamide]
5 | > 1 | Cc1c(-c2nn(CCOc3ccccc3)c(=O)c3ccccc23)c2cc(Cl)ccc2n1CC(=O)NS(C)(=O)=O [Example 322, 2-(5-Chloro-2-methyl-3-(4-oxo-3-(2-phenoxyethyl)-3,4-dihydrophthalazin-1-yl)-1H-indol-1-yl)-N-(methylsulfonyl)acetamide]
6 | 0.518 | Cc1c(-c2cn(Cc3ccccc3)c(=O)c3ccccc23)c2cc(F)ccc2n1CC(=O)NS(C)(=O)=O [Example 323, 2-(3-(2-benzyl-1-oxo-1,2-dihydroisoquinolin-4-yl)-5-fluoro-2-methyl-1H-indol-1-yl)-N-(methylsulfonyl)acetamide]
7 | 0.006 | Cc1c(-c2ccc(=O)n(Cc3ccccc3)n2)c2cc(F)ccc2n1CC(=O)O [Example 324, 2-(3-(1-benzyl-6-oxo-1,6-dihydropyridazin-3-yl)-5-fluoro-2-methyl-1H-indol-1-yl)-acetic acid]
8 | 0.061 | Cc1c(-c2nn(C(C)C)c(=O)c3ccccc23)c2ccccc2n1CC(=O)O [Example 326, [3-(3-isopropyl-4-oxo-3,4-dihydrophthalazin-1-yl)-2-methyl-1H-indol-1-yl]acetic acid]
9 | 0.013 | Cc1c(-c2nn(CC(C)C)c(=O)c3ccccc23)c2cc(F)ccc2n1CC(=O)O [Example 327, {5-fluoro-2-methyl-3-[3-(2-methylpropyl)-4-oxo-3,4-dihydrophthalazin-1-yl]-1H-indol-1-yl}acetic acid]
10 | 0.012 | Cc1c(-c2nn(Cc3ccccc3)c(=O)c3ccccc23)c2cc(F)ccc2n1CC(=O)O [Example 328, [3-(3-benzyl-4-oxo-3,4-dihydrophthalazin-1-yl)-5-fluoro-2-methyl-1H-indol-1-yl]-acetic acid]
11 | 0.003 | Cc1c(-c2nn(Cc3cccc(F)c3)c(=O)c3ccccc23)c2cc(F)ccc2n1CC(=O)O [Example 329, {5-fluoro-3-[3-(3-fluorobenzyl)-4-oxo-3,4-dihydrophthalazin-1-yl]-2-methyl-1H-indol-1-yl}acetic acid]
12 | 0.015 | Cc1c(-c2nn(C(C)C)c(=O)c3ccccc23)c2cc(F)ccc2n1CC(=O)O [Example 330, {5-fluoro-2-methyl-3-[3-(1-methylethyl)-4-oxo-3,4-dihydrophthalazin-1-yl]-1H-indol-1-yl}acetic acid]
13 | 0.003 | Cc1c(-c2nn(Cc3ccc(Cl)cc3Cl)c(=O)c3ccccc23)c2cc(Cl)ccc2n1CC(=O)O [Example 331, {5-chloro-3-[3-(2,4-dichlorobenzyl)-4-oxo-3,4-dihydrophthalazin-1-yl]-2-methyl-1H-indol-1-yl}acetic acid]
14 | 0.026 | Cc1c(-c2nn(Cc3ccc(S(C)(=O)=O)cc3)c(=O)c3ccccc23)c2cc(Cl)ccc2n1CC(=O)O [Example 332, (5-chloro-2-methyl-3-{3-[4-(methylsulfonyl)benzyl]-4-oxo-3,4-dihydro-phthalazin-1-yl}-1H-indol-1-yl)acetic acid]
15 | 0.111 | Cc1c(-c2ccc(=O)n(CC(C)C)n2)c2cc(F)ccc2n1CC(=O)O [Example 333, 2-(5-fluoro-3-(1-isobutyl-6-oxo-1,6-dihydropyridazin-3-yl)-2-methyl-1H-indol-1-yl)acetic acid]
16 | 0.21 | Cc1c(-c2ccc(=O)n(C(C)C)n2)c2cc(F)ccc2n1CC(=O)O [Example 334, [5-fluoro-3-(1-isopropyl-6-oxo-1,6-dihydropyridazin-3-yl)-2-methyl-1H-indol-1-yl]-acetic acid]
17 | 0.005 | Cc1c(Cc2ccc(=O)n(Cc3cc(F)ccc3F)n2)c2cc(F)ccc2n1CC(=O)O [Example 336, (3-{[1-(2,5-difluorobenzyl)-6-oxo-1,6-dihydropyridazin-3-yl]methyl}-5-fluoro-2-methyl-1H-indol-1-yl)acetic acid]
18 | 0.01 | Cc1c(Cc2ccc(=O)n(Cc3ccccc3)n2)c2cc(F)ccc2n1CC(=O)O [Example 337, {3-[(1-benzyl-6-oxo-1,6-dihydropyridazin-3-yl)methyl]-5-fluoro-2-methyl-1H-indol-1-yl}acetic acid]
19 | 0.005 | Cc1c(Cc2ccc(=O)n(Cc3c(F)cccc3F)n2)c2cc(F)ccc2n1CC(=O)O [Example 338, (3-{[1-(2,6-difluorobenzyl)-6-oxo-1,6-dihydropyridazin-3-yl]methyl}-5-fluoro-2-methyl-1H-indol-1-yl)acetic acid]
20 | 0.004 | Cc1c(Cc2ccc(=O)n(Cc3cccc(F)c3F)n2)c2cc(F)ccc2n1CC(=O)O [Example 339, (3-{[1-(2,3-difluorobenzyl)-6-oxo-1,6-dihydropyridazin-3-yl]methyl}-5-fluoro-2-methyl-1H-indol-1-yl)acetic acid]
21 | 0.003 | Cc1c(Cc2ccc(=O)n(Cc3ccccc3F)n2)c2cc(F)ccc2n1CC(=O)O [Example 340, (3-{[1-(2-fluorobenzyl)-6-oxo-1,6-dihydropyridazin-3-yl]methyl}-5-fluoro-2-methyl-1H-indol-1-yl)acetic acid]
22 | 0.033 | Cc1c(Cc2ccc(=O)n(Cc3cccc(F)c3)n2)c2cc(F)ccc2n1CC(=O)O [Example 341, (3-{[1-(3-fluorobenzyl)-6-oxo-1,6-dihydropyridazin-3-yl]methyl}-5-fluoro-2-methyl-1H-indol-1-yl)acetic acid]
23 | 0.013 | Cc1c(Cc2ccc(=O)n(Cc3ccc(F)cc3)n2)c2cc(F)ccc2n1CC(=O)O [Example 342, (3-{[1-(4-fluorobenzyl)-6-oxo-1,6-dihydropyridazin-3-yl]methyl}-5-fluoro-2-methyl-1H-indol-1-yl)acetic acid]
24 | 0.142 | Cc1c(Cc2ccc(=O)n(CC(C)(C)C)n2)c2cc(F)ccc2n1CC(=O)O [Example 343, (3-{[1-(2,2-dimethylpropyl)-6-oxo-1,6-dihydropyridazin-3-yl]methyl}-5-fluoro-2-methyl-1H-indol-1-yl)acetic acid]
25 | 0.017 | Cc1c(Cc2ccc(=O)n(CCCC(F)(F)F)n2)c2cc(F)ccc2n1CC(=O)O [Example 344, 2-(5-fluoro-2-methyl-3-((6-oxo-1-(4,4,4-trifluorobutyl)-1,6-dihydropyridazin-3-yl)-methyl)-1H-indol-1-yl)acetic acid]
